How the values were obtained:
[1] = biological target: T1, human sodium glucose cotransporter 2 (Homo sapiens, UniProt P31639); test: SGLT-2 assay: 14C-AMG uptake in CHO-hSGLT2 or HEK293-hSGLT2 cells; assay type: cell-based; details: n = 1-4, hSGLT2-transfected cells, read-out: SGLT2 IC50 nM (n = 1-4)
T1 construct: expressed in transfected cells; host or cells: CHO-K1 (ATCC CCL-61) or HEK293 (ATCC CRL-1573), stably transfected with pZeoSV expression vector
T1 sequence (P31639 1-672): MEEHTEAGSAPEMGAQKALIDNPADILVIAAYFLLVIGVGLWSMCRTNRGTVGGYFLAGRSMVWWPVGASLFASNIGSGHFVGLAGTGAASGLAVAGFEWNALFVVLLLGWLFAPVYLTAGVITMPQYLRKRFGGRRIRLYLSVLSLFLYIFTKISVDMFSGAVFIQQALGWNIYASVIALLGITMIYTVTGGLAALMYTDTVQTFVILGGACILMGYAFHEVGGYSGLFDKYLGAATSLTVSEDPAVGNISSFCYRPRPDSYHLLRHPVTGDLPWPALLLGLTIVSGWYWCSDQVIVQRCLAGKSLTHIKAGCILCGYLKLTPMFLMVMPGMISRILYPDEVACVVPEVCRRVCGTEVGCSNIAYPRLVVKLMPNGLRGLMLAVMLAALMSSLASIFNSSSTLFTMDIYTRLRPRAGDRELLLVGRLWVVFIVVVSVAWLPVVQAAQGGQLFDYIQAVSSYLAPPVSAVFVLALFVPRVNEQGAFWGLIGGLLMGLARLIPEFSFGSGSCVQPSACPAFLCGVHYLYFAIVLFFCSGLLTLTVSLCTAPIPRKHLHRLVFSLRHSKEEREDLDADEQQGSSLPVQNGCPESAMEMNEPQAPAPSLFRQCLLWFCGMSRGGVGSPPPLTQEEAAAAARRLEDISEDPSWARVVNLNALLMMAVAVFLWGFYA
Description: These cell lines transport 14 C-labelled alpha-methyl-glucopyranoside (14 C-AMG, Amersham) into the interior of the cell in sodium-dependent manner.
The SGLT-2 assay is carried out as follows: CHO-hSGLT2 cells are cultivated in Ham's F12 Medium (BioWhittaker) with 10% foetal calf serum and 250 μg/mL zeocin (Invitrogen), and HEK293-hSGLT2 cells are cultivated in DMEM medium with 10% foetal calf serum and 250 μg/mL zeocin (Invitrogen). The cells are detached from the culture flasks by washing twice with PBS and subsequently treating with trypsin/EDTA. After the addition of cell culture medium the cells are centrifuged, resuspended in culture medium and counted in a Casy cell counter. Then 40,000 cells per well are seeded into a white, 96-well plate coated with poly-D-Iysine and incubated overnight at 37° C., 5% CO2. The cells are washenwice with 250 μl of assay buffer (Hanks Balanced Salt Solution, 137 mM NaCl, 5.4 mM KCl, 2.8 mM CaCl2, 1.2 mM MgSO4 and 10 mM HEPES (pH 7.4), 50 μg/mL of gentamycin). 250 μl of assay buffer and 5 μl of test compound are then added to each well and the plate is incubated for a further 15 minutes in the incubator. 5 μl of 10% DMSO are used as the negative control. The reaction is started by adding 5 μl of 14 C-AMG (0.05 μCi) to each well. After 2 hours' incubation at 37° C., 5% CO2, the cells are washed again with 250 μl of PBS (200C) and then lysed by the addition of 25 μl of 0.1 N NaOH (5 min. at 37° C.). 200 μl of MicroScint20 (Packard) are added to each well and incubation is continued for a further 20 min at 37° C. After this incubation the radioactivity of the 14 C-AMG absorbed is measured in a Topcount (Packard) using a 14 C scintillation program.

[2] = biological target: T2, human SGLT1 (Homo sapiens, UniProt P13866); test: hSGLT1 assay: analogous [14C]-AMG uptake in CHO-K1 or HEK293 cells expressing hSGLT1; assay type: cell-based; details: n = 1-4, hSGLT1-transfected cells
T2 construct: expressed in transfected cells; host or cells: CHO-K1 or HEK293 cells
T2 sequence (P13866 1-664): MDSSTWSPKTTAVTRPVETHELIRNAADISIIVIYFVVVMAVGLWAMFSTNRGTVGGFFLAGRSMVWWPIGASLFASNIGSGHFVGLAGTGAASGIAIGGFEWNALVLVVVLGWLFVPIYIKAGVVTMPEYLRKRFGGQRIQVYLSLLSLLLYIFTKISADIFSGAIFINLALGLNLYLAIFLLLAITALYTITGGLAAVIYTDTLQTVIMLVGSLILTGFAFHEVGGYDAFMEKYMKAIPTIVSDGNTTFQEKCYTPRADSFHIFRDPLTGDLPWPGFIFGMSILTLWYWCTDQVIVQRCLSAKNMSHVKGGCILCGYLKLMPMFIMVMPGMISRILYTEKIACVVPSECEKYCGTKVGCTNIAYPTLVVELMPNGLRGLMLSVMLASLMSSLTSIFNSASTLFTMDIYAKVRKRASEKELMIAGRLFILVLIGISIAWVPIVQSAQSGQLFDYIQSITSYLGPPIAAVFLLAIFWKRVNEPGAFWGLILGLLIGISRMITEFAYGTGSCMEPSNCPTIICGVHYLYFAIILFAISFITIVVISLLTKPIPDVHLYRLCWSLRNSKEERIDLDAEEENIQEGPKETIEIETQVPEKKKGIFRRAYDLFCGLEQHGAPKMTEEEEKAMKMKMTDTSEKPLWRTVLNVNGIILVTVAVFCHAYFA
Description: To determine human SGLT1 inhibitory activity, an analogous test was set up in which the cDNA for hSGLTI (Genbank Ace. No. NM000343) instead of hSGLT2 cDNA is expressed in CHO-K1 or HEK293 cells. The uptake assay buffer in the case of the hSGLT1 assay contains 10 mM HEPES, 5 mM Tris, 140 mM NaCl, 2 mM KCl, 1 mM CaCl2, and 1 mM MgCl2, pH 7.4 containing 0.5 mM of α-methyl-D-glucopyranoside (AMG), 10 μM of [^14C]-α-methyl-D-glucopyranoside and different inhibitor concentrations.

Compound | IC50 [1] | IC50 [2]
CCOc1ccc(Cc2cc([C@@H]3O[C@H](CSc4ncccn4)[C@@H](O)[C@H](O)[C@H]3O)ccc2Cl)cc1 [Example 8, (2S,3R,4R,5S,6S)-2-[4-Chloro-3-(4-ethoxy-benzyl)-phenyl]-6-(pyrimidin-2-ylsulfanylmethyl)-tetrahydro-pyran-3,4,5-triol] | 85 nM | 
CCOc1ccc(Cc2cc([C@@H]3O[C@H](CSc4nnnn4C)[C@@H](O)[C@H](O)[C@H]3O)ccc2Cl)cc1 [Example 10, (2S,3R,4R,5S,6S)-2-[4-Chloro-3-(4-ethoxy-benzyl)-phenyl]-6-(1-methyl-1H-tetrazol-5-ylsulfanylmethyl)-tetrahydro-pyran-3,4,5-triol] | 20 nM | < 1000 nM
CCOc1ccc(Cc2cc([C@@H]3O[C@H](CSc4cccs4)[C@@H](O)[C@H](O)[C@H]3O)ccc2Cl)cc1 [Example 11, (2S,3R,4R,5S,6S)-2-[4-Chloro-3-(4-ethoxy-benzyl)-phenyl]-6-(thiophen-2-ylsulfanylmethyl)-tetrahydro-pyran-3,4,5-triol] | 60 nM | < 1000 nM
CCOc1ccc(Cc2cc([C@@H]3O[C@H](CSc4nc5ccccc5[nH]4)[C@@H](O)[C@H](O)[C@H]3O)ccc2Cl)cc1 [Example 15, (2S,3S,4R,5R,6S)-2-(1H-Benzoimidazol-2-ylsulfanylmethyl)-6-[4-chloro-3-(4-ethoxy-benzyl)-phenyl]-tetrahydro-pyran-3,4,5-triol] | 65 nM | 
CCOc1ccc(Cc2cc([C@@H]3O[C@H](CSc4ccccc4CO)[C@@H](O)[C@H](O)[C@H]3O)ccc2Cl)cc1 [Example 23, (2S,3R,4R,5S,6S)-2-[4-Chloro-3-(4-ethoxy-benzyl)-phenyl]-6-(2-hydroxymethyl-phenylsulfanylmethyl)-tetrahydro-pyran-3,4,5-triol] | 36 nM | 
CCOc1ccc(Cc2cc([C@@H]3O[C@H](CSc4ccccc4C(N)=O)[C@@H](O)[C@H](O)[C@H]3O)ccc2Cl)cc1 [Example 24, 2-{(2S,3S,4R,5R,6S)-6-[4-Chloro-3-(4-ethoxy-benzyl)-phenyl]-3,4,5-trihydroxy-tetrahydro-pyran-2-ylmethylsulfanyl}-benzamide] | 57 nM | 
CCOc1ccc(Cc2cc([C@@H]3O[C@H](CSc4cc(NC(C)=O)ccc4F)[C@@H](O)[C@H](O)[C@H]3O)ccc2Cl)cc1 [Example 25, N-(3-{(2S,3S,4R,5R,6S)-6-[4-Chloro-3-(4-ethoxy-benzyl)-phenyl]-3,4,5-trihydroxy-tetrahydro-pyran-2-ylmethylsulfanyl}-4-fluoro-phenyl)-acetamide] | 7 nM | < 50 nM
CCOc1ccc(Cc2cc([C@@H]3O[C@H](CSc4cc(C(N)=O)ccc4F)[C@@H](O)[C@H](O)[C@H]3O)ccc2Cl)cc1 [Example 26] | 12 nM | < 50 nM
CCOc1ccc(Cc2cc([C@@H]3O[C@H](CSc4cc(C(=O)NC)ccc4F)[C@@H](O)[C@H](O)[C@H]3O)ccc2Cl)cc1 [Example 27, 3-{(2S,3S,4R,5R,6S)-6-[4-Chloro-3-(4-ethoxy-benzyl)-phenyl]-3,4,5-trihydroxy-tetrahydro-pyran-2-ylmethylsulfanyl}-4-fluoro-N-methyl-benzamide] | 6 nM | < 50 nM
CCOc1ccc(Cc2cc([C@@H]3O[C@H](CSc4cc(C(=O)N5CCCC5)ccc4F)[C@@H](O)[C@H](O)[C@H]3O)ccc2Cl)cc1 [Example 36, (3-{(2S,3S,4R,6R,6S)-6-[4-Chloro-3-(4-ethoxy-benzyl)-phenyl]-3,4,5-trihydroxy-tetrahydro-pyran-2-ylmethylsulfanyl}-4-fluoro-phenyl)-pyrrolidin-1-yl-methanone] | 6 nM | 
CCOc1ccc(Cc2cc([C@@H]3O[C@H](CSc4ccc(NC(C)=O)cc4)[C@@H](O)[C@H](O)[C@H]3O)ccc2Cl)cc1 [Example 61, N-(4-{(2S,3S,4R,6R,6S)-6-[4-Chloro-3-(4-ethoxy-benzyl)-phenyl]-3,4,6-trihydroxy-tetrahydro-pyran-2-ylmethylsulfanyl}-phenyl)-acetamide] | 28 nM | 
CCOc1ccc(Cc2cc([C@@H]3O[C@H](CSc4cccc(NC(=O)CC)c4)[C@@H](O)[C@H](O)[C@H]3O)ccc2Cl)cc1 [Example 67, N-(3-{(2S,3S,4R,5R,6S)-6-[4-Chloro-3-(4-ethoxy-benzyl)-phenyl]-3,4,5-trihydroxy-tetrahydro-pyran-2-ylmethylsulfanyl}-phenyl)-propionamide] | 9 nM | 
CCOc1ccc(Cc2cc([C@@H]3O[C@H](CSc4cccc(NC(=O)OC)c4)[C@@H](O)[C@H](O)[C@H]3O)ccc2Cl)cc1 [Example 69] | 28 nM | 
CCOc1ccc(Cc2cc([C@@H]3O[C@H](CSc4cccc(CO)c4)[C@@H](O)[C@H](O)[C@H]3O)ccc2Cl)cc1 [Example 77, (2S,3R,4R,5S,6S)-2-[4-Chloro-3-(4-ethoxy-benzyl)-phenyl]-6-(3-hydroxymethyl-phenylsulfanylmethyl)-tetrahydro-pyran-3,4,5-triol] | 61 nM | 
CCOc1ccc(Cc2cc([C@@H]3O[C@H](COc4cccc(C(=O)NC)c4)[C@@H](O)[C@H](O)[C@H]3O)ccc2Cl)cc1 [Example 83, 3-{(2R,3S,4R,5R,6S)-6-[4-Chloro-3-(4-ethoxy-benzyl)-phenyl]-3,4,5-trihydroxy-tetrahydro-pyran-2-ylmethoxy}-N-methyl-benzamide] | 72 nM | 
CCOc1ccc(Cc2cc([C@@H]3O[C@H](COc4cccc(C(=O)N5CCCC5)c4)[C@@H](O)[C@H](O)[C@H]3O)ccc2Cl)cc1 [Example 84, (3-{(2R,3S,4R,5R,6S)-6-[4-Chloro-3-(4-ethoxy-benzyl)-phenyl]-3,4,5-trihydroxy-tetrahydro-pyran-2-ylmethoxy}-phenyl)-pyrrolidin-1-yl-methanone] | 11 nM | 
CCOc1ccc(Cc2cc([C@@H]3O[C@H](COc4cccc(C(=O)N5CCC5)c4)[C@@H](O)[C@H](O)[C@H]3O)ccc2Cl)cc1 [Example 85] | 9 nM | 

— patent publication US20110230403A1, “GLYCOSIDE DERIVATIVES AND USES THEREOF” (NOVARTIS AG, priority 2008, published 2011)
